Data from PubChem BioAssay AID256 (DTP/NCI, 2004).
Several values for one entry are separate records, joined by “and”; a condition that tells them apart may be missing. Equal values may be shown once. Inconclusive results and toxic doses are left out. The calls were made as follows: active = survival T/C of 150% or more; inactive = T/C below 125% in these data.

Test system: CD2F1 mice, L1210 leukemia ip, survival T/C
Assay: NCI In Vivo Anticancer Drug Screen. Data for tumor model L1210 Leukemia (intraperitoneal) in CD2F1 (CDF1) mice
Details: endpoint: mean survival time, higher = longer survival
How it was run: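 Read-out first: treated-group measurement over vehicle-control measurement, expressed as a ratio. Animals bore a transplanted tumor line and were dosed with compound or vehicle.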

[1] = dose: 100.0 mg/kg/injection, schedule: Q04DX003 (ip), vehicle: saline with Tween-80
[2] = dose: 200.0 mg/kg/injection, schedule: Q04DX003 (ip), vehicle: saline with Tween-80
[3] = dose: 400.0 mg/kg/injection, schedule: Q04DX003 (ip), vehicle: saline with Tween-80
[4] = dose: 100.0 mg/kg/injection, schedule: Q01DX009 (ip), vehicle: saline with Tween-80
[5] = dose: 200.0 mg/kg/injection, schedule: Q01DX009 (ip), vehicle: saline with Tween-80
[6] = dose: 400.0 mg/kg/injection, schedule: Q01DX009 (ip), vehicle: saline with Tween-80
[7] = dose: 100.0 mg/kg/injection, schedule: Q01DX009 (ip), vehicle: saline
[8] = dose: 200.0 mg/kg/injection, schedule: Q01DX009 (ip), vehicle: saline
[9] = dose: 100.0 mg/kg/injection, schedule: Q01DX001 (ip), vehicle: saline
[10] = dose: 200.0 mg/kg/injection, schedule: Q01DX001 (ip), vehicle: saline
[11] = dose: 50.0 mg/kg/injection, schedule: Q01DX009 (ip), vehicle: saline with Tween-80
[12] = dose: 12.5 mg/kg/injection, schedule: Q01DX009 (ip), vehicle: saline with Tween-80
[13] = dose: 25.0 mg/kg/injection, schedule: Q01DX009 (ip), vehicle: saline with Tween-80

Measured: T/C

C=C(c1ccccc1)C(C)C(=O)OCC (stereo not drawn)
inactive: [1] 103 % of control | [2] 103 % of control | [3] 100 % of control

CC(CC=O)P(=O)(c1ccccc1)c1ccccc1 (stereo not drawn)
inactive: [4] 94 % of control | [1] 94 % of control | [5] 92 % of control | [2] 91 % of control | [6] 95 % of control | [3] 91 % of control

O=C(O)C(=O)O.[Ru].c1cnc2c(c1)ccc1cccnc12.c1cnc2c(c1)ccc1cccnc12
inactive: dose: 3.13 mg/kg/injection, schedule: Q04DX003 (ip), vehicle: water 95 % of control | dose: 6.25 mg/kg/injection, schedule: Q04DX003 (ip), vehicle: water 96 % of control | dose: 12.5 mg/kg/injection, schedule: Q04DX003 (ip), vehicle: water 93 % of control | dose: 25.0 mg/kg/injection, schedule: Q04DX003 (ip), vehicle: water 93 % of control | dose: 50.0 mg/kg/injection, schedule: Q04DX003 (ip), vehicle: water 95 % of control | dose: 100.0 mg/kg/injection, schedule: Q04DX003 (ip), vehicle: water 91 % of control | dose: 200.0 mg/kg/injection, schedule: Q04DX003 (ip), vehicle: water 90 % of control

Cc1c(Cl)cccc1NC(=O)c1ccc([N+](=O)[O-])cc1
inactive: [1] 95 % of control | [2] 101 % of control | [3] 86 % of control

O=C(O)C1C=CCC(C(=O)O)C1 (stereo not drawn)
inactive: dose: 50.0 mg/kg/injection, schedule: Q01DX009 (ip), vehicle: saline 101 % of control | [7] 97 % of control | [8] 101 % of control

COc1ccc(COc2ccc([N+](=O)[O-])cc2)cc1OC
inactive: dose: 75.0 mg/kg/injection, schedule: Q04DX002 (ip), vehicle: saline with Tween-80 87 % of control | dose: 150.0 mg/kg/injection, schedule: Q04DX002 (ip), vehicle: saline with Tween-80 102 % of control

Cc1cc(N)c(C)c([N+](=O)[O-])c1
inactive: [1] 103 % of control | [2] 101 % of control | [3] 92 % of control

CC(C)OC(N)=O
inactive: [9] 94 % of control | [4] 106 % of control | dose: 100.0 mg/kg/injection, schedule: Q04DX003 (ip), vehicle: saline 97 % of control | [10] 102 % of control | [5] 103 % of control | dose: 200.0 mg/kg/injection, schedule: Q04DX003 (ip), vehicle: saline 101 % of control | dose: 400.0 mg/kg/injection, schedule: Q01DX001 (ip), vehicle: saline 100 % of control | [6] 105 % of control | dose: 400.0 mg/kg/injection, schedule: Q04DX003 (ip), vehicle: saline 100 % of control

CCN(CCN(C)C(C)(C)C(C)(C)C)C(=O)C(O)(c1ccccc1)c1ccccc1
inactive: [11] 103 % of control | [4] 110 % of control

CCc1ccc(C(=O)O)cc1S(=O)(=O)Cl
inactive: [12] 101 % of control | dose: 12.5 mg/kg/injection, schedule: Q04DX003 (ip), vehicle: saline with Tween-80 104 % of control | [13] 97 % of control | dose: 25.0 mg/kg/injection, schedule: Q04DX003 (ip), vehicle: saline with Tween-80 101 % of control | [11] 95 % of control | dose: 50.0 mg/kg/injection, schedule: Q04DX003 (ip), vehicle: saline with Tween-80 103 % of control | [1] 97 % of control

Cc1ccc(NC(=O)Nc2ccccc2C(N)=O)cc1C
inactive: [12] 95 % of control | [13] 102 % of control | [11] 95 % of control | [4] 92 % of control | [5] 92 % of control

CC12CCC3c4ccc(O)cc4CCC3C1CCC2S (stereo not drawn)
inactive: [1] 88 % of control | [2] 92 % of control

Cc1c[nH]c(=O)c[n+]1[O-]
inactive: [4] 100 % of control | [5] 100 % of control | [6] 97 % of control

NC(CSC(c1ccccc1)(c1ccccc1)c1cccs1)C(=O)O (stereo not drawn)
inactive: dose: 25.0 mg/kg/injection, schedule: Q01DX009 (ip), vehicle: saline 92 % of control | [7] 86 % of control | [8] 95 % of control

SCC1=NCCN1
inactive: dose: 25.0 mg/kg/injection, schedule: Q04DX002 (ip), vehicle: saline 103 % of control | dose: 50.0 mg/kg/injection, schedule: Q04DX002 (ip), vehicle: saline 98 % of control | dose: 100.0 mg/kg/injection, schedule: Q04DX002 (ip), vehicle: saline 93 % of control and 95 % of control

c1cc2nc(c1)CSCCCCCCCCSC2
inactive: [4] 88 % of control | [5] 91 % of control | [6] 95 % of control

Nc1ccc(C(OC(=O)c2cc3ccccc3c(Cc3c(O)c(C(=O)OC(c4ccc(N)cc4)(c4ccc(N)cc4)c4ccc(N)cc4)cc4ccccc34)c2O)(c2ccc(N)cc2)c2ccc(N)cc2)cc1
inactive: dose: 0.78 mg/kg/injection, schedule: Q01DX009 (ip), vehicle: saline with Tween-80 100 % of control and 111 % of control | dose: 1.56 mg/kg/injection, schedule: Q01DX009 (ip), vehicle: saline with Tween-80 123 % of control and 102 % of control | dose: 3.12 mg/kg/injection, schedule: Q01DX009 (ip), vehicle: saline with Tween-80 105 % of control | dose: 3.13 mg/kg/injection, schedule: Q01DX009 (ip), vehicle: saline with Tween-80 101 % of control | dose: 6.25 mg/kg/injection, schedule: Q01DX009 (ip), vehicle: saline with Tween-80 104 % of control and 107 % of control | [12] 88 % of control and 110 % of control | [13] 101 % of control

NCC1OC(n2cnc3c(N)ncnc32)C(O)C1O (stereo not drawn)
inactive: dose: 12.5 mg/kg/injection, schedule: Q01DX005 (ip), vehicle: Klucel (hydroxypropylcellulose) (HPC) 109 % of control | dose: 25.0 mg/kg/injection, schedule: Q01DX005 (ip), vehicle: Klucel (hydroxypropylcellulose) (HPC) 107 % of control | dose: 50.0 mg/kg/injection, schedule: Q01DX005 (ip), vehicle: Klucel (hydroxypropylcellulose) (HPC) 115 % of control | dose: 100.0 mg/kg/injection, schedule: Q01DX005 (ip), vehicle: Klucel (hydroxypropylcellulose) (HPC) 115 % of control

O=S(=O)(Oc1ccc(OS(=O)(=O)c2ccccc2)cc1)c1ccccc1
inactive: [4] 96 % of control | [5] 98 % of control | [6] 107 % of control

[Ni+2].[S-]Cc1ccccc1.[S-]Cc1ccccc1
inactive: [9] 100 % of control | [10] 96 % of control

CCOC(=O)C(C)(C)Br
inactive: dose: 100.0 mg/kg/injection, schedule: Q01DX009 (ip), vehicle: saline sonified 105 % of control | [4] 102 % of control | [1] 95 % of control and 98 % of control and 103 % of control | dose: 200.0 mg/kg/injection, schedule: Q01DX009 (ip), vehicle: saline sonified 100 % of control | [2] 95 % of control and 98 % of control and 100 % of control | dose: 400.0 mg/kg/injection, schedule: Q01DX009 (ip), vehicle: saline sonified 106 % of control | [6] 90 % of control | [3] 96 % of control and 103 % of control and 106 % of control

O=C(OCC1OC(n2ccn(C3OC(COC(=O)c4ccccc4)C(OC(=O)c4ccccc4)C3OC(=O)c3ccccc3)c2=S)C(OC(=O)c2ccccc2)C1OC(=O)c1ccccc1)c1ccccc1 (stereo not drawn)
inactive: dose: 12.5 mg/kg/injection, schedule: Q01DX005 (ip), vehicle: water 102 % of control | dose: 25.0 mg/kg/injection, schedule: Q01DX005 (ip), vehicle: water 104 % of control | dose: 50.0 mg/kg/injection, schedule: Q01DX005 (ip), vehicle: water 94 % of control | dose: 100.0 mg/kg/injection, schedule: Q01DX005 (ip), vehicle: water 94 % of control | dose: 200.0 mg/kg/injection, schedule: Q01DX005 (ip), vehicle: water 94 % of control
